Entries after “also recorded” stand apart in the source; their conditions may differ. Structures can show the parent of a compound that is named as a salt. Where two headings read alike, the source gives them in different places.
Tests used:
TsGAR-1 [1] = molecular target: T1, TsGAR-1 (Trichinella spiralis, UniProt A0A0V1C1R2); assay: Aequorin calcium mobilization agonist assay in CHO-K1 cells expressing TsGAR-1; format: cell-based; details: for ACh-mediated calcium mobilization via TsGAR-1 (in words): Fig. 4
Text: (§1) T. spiralis GARs were heterologously expressed in CHO–K1 cells (Sigma) along with the aequorin reporter—with or without the wild-type human G protein alpha 15 subunit (Gα15(16)) (cDNA Resource Center, Bloomsburg University of Pennsylvania)—to observe activation of the receptor by monitoring bioluminescence triggered by the mobilization of intracellular calcium ([Offermanns and Simon, 1995]; [Park et al., 2002]). Therefore, there were two types of transient expression: i) TsGAR-1, -2, or -3/aequorin/Gα15(16); and ii) TsGAR-1, -2, or -3/aequorin. The use of Gα15(16) in the first assay is due to its highly efficient way of linking calcium mobilization signaling pathways to GPCRs that are preferentially coupling with Gi/o or Gs protein members ([Offermanns and Simon, 1995]).
(§2) For handling cell lines, all transfection details, and monitoring receptor activities, we followed the previously published study ([Šimo et al., 2011], [2013]; [Mateos-Hernández et al., 2020]). Briefly, CHO–K1 cells were kept in growth medium (Ham's F12 Media with 10% fetal bovine serum) until 70% of confluence was reached. FuGENE® HD Transfection Reagent (Promega) was then used to transfect the plasmid constructs. Prior to the assay, the cells were pre-equilibrated with coelenterazine h (Promega) for 3 h at room temperature. The assay was performed in opaque 96-well microplates (Nunc) using either Fluostar Omega (BMG Labtech) or GloMax® Plate Reader (Promega). In agonist assays, 50 μL of various doses of agonistic ligands were added to wells in triplicate, followed by injection of 50μL/∼15,000 of CHO–K1 cells. Immediately after the cell injections, luminescence values were monitored for 25 s and their integrated values over time were normalized to the largest positive control response in each plate (45 μM ACh) after background noise was subtracted. When performing the antagonist assay, cells were pre-incubated with different doses of antagonistic ligands for 5 min in RT (in a 96-well plate) and subsequently a 50 μL of 10 μM ACh solution was injected into the wells. The changes in luminescence were measured for 25 s immediately after injecting ACh, and time integrated values were normalized to the response of those wells in each plate that only contained cells with medium. A dose-response curve was plotted afterwards for each data set and half-maximum response values (EC50 or IC50) along the Hill coefficient (nH) were calculated using GraphPad Prism 8.0 (GraphPad Software). Two and three biological replicates were performed for the testing of T. spiralis GARs with or without the Gα15(16) and agonistic or antagonistic assay, respectively, with three technical replicates for each ligand. In terms of negative controls, a mock transfection was performed using empty pcDNA3.1 (+) plasmid, with an aequorin reporter and Gα15(16) subunit. To confirm the specificity of T. spiralis GAR-1, -2, and -3 affinity, we tested dopamine, octopamine and norepinephrine chemical agents.

A. suum GAR-1 = tested on: A. suum GAR-1; parameters: method as in Kimber et al., 2009; details: ref Kimber et al., 2009; cited from earlier work
TsGAR-2 [2] = molecular target: T2, TsGAR-2 (Trichinella spiralis, UniProt E5SAZ1); assay: Aequorin calcium mobilization agonist assay in CHO-K1 cells expressing TsGAR-2; format: cell-based; details: for ACh-mediated calcium mobilization via TsGAR-2 (in words): Fig. 4
Text: as §1, §2

TsGAR-3 [3] = molecular target: T3, TsGAR-3 (Trichinella spiralis, UniProt E5S5F5); assay: Aequorin calcium mobilization agonist assay in CHO-K1 cells expressing TsGAR-3; format: cell-based; details: for ACh-mediated calcium mobilization via TsGAR-3 (in words): Fig. 4
Text: as §1, §2

T. castaneum mAChR-B = tested on: T. castaneum mAChR-B; parameters: method as in Collin et al., 2013; details: ref Collin et al., 2013, cited from earlier work; for antagonist effect on T. castaneum mAChR-B (in words): same expression system as this study
D. melanogaster mAChR-B = tested on: D. melanogaster mAChR-B; parameters: method as in Collin et al., 2013; details: ref Collin et al., 2013, cited from earlier work; for antagonist effect on D. melanogaster mAChR-B (in words): same expression system as this study
TsGAR-3 [4] = molecular target: T3, TsGAR-3; assay: Aequorin antagonist assay (block of 10 μM ACh response) in CHO-K1 cells expressing TsGAR-3; format: cell-based; details: for nH (Hill coefficient), antagonist, TsGAR-3 / antagonist effect on TsGAR-3 (in words): without Gα15(16)
Method: Therefore, there were two types of transient expression: i) TsGAR-1, -2, or -3/aequorin/Gα15(16); and ii) TsGAR-1, -2, or -3/aequorin.
as §2, with “Briefly,” for “For handling cell lines, all transfection details, and monitoring receptor activities, we followed the previously published study ([Šimo et al., 2011], [2013]; [Mateos-Hernández et al., 2020]). Briefly,”, “Immediately after the cell injections, luminescence values were monitored for 25 s and their integrated values over time were normalized to the largest positive control response in each plate (45 μM ACh) after background noise was subtracted.” left out

TsGAR-2 [5] = molecular target: T2, TsGAR-2; assay: Aequorin antagonist assay (block of 10 μM ACh response) in CHO-K1 cells expressing TsGAR-2; format: cell-based; details: co-expressed with Gα15(16)
Text: as §1, §2

TsGAR-1 [6] = molecular target: T1, TsGAR-1; assay: Aequorin antagonist assay (block of 10 μM ACh response) in CHO-K1 cells expressing TsGAR-1; format: cell-based; details: co-expressed with Gα15(16)
Text: as §1
as §2, with “In terms of negative controls, a mock transfection was performed using empty pcDNA3.1 (+) plasmid, with an aequorin reporter and Gα15(16) subunit. To confirm the specificity of T. spiralis GAR-1, -2, and -3 affinity, we tested dopamine, octopamine and norepinephrine chemical agents.” left out

C. elegans GAR-1 = tested on: C. elegans GAR-1; parameters: method as in Lee et al., 1999, Lee et al., 2000; details: ref Lee et al., 1999, Lee et al., 2000; cited from earlier work
[7] = agonist, co-expressed with Gα15(16)
[8] = times lower sensitivity than mAChR-A
[9] = expressed alone, without Gα15(16)

T3 sequence (E5S5F5 entry or part of it): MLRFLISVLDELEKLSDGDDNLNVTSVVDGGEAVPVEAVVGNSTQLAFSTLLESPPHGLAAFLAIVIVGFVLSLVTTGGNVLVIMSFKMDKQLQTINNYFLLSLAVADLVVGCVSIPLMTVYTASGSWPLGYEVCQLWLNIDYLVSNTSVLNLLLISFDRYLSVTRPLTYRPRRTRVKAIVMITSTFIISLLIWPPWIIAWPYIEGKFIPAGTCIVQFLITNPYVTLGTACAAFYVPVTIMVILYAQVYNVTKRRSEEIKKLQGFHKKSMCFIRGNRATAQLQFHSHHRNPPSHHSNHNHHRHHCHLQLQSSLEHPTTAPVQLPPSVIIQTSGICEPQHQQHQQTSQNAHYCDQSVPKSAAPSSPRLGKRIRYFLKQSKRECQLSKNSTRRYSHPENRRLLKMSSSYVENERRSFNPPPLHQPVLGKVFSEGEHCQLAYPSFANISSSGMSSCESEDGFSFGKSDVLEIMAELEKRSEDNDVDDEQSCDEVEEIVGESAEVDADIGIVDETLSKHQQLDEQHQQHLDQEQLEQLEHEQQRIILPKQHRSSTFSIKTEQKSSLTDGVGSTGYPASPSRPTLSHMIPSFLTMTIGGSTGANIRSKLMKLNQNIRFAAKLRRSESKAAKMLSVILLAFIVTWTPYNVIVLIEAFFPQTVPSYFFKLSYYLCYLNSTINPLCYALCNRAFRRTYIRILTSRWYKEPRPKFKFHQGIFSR
T1 sequence (A0A0V1C1R2 entry or part of it): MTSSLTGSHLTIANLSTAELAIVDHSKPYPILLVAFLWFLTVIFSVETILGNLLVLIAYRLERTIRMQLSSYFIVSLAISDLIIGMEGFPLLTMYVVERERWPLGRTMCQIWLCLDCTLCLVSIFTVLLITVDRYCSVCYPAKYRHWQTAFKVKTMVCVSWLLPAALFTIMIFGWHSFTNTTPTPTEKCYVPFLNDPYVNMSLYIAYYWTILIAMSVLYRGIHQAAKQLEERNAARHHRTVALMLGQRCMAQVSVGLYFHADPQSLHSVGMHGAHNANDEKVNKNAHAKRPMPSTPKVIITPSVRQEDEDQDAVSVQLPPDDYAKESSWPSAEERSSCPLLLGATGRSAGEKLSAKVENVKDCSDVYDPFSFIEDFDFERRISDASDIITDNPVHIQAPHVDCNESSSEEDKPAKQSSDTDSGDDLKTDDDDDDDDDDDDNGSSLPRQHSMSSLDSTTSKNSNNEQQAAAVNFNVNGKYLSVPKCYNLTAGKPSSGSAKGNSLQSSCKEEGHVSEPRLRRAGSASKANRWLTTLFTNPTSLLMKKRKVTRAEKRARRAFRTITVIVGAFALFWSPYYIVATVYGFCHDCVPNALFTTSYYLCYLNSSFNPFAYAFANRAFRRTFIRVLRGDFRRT
T2 sequence (E5SAZ1 entry or part of it): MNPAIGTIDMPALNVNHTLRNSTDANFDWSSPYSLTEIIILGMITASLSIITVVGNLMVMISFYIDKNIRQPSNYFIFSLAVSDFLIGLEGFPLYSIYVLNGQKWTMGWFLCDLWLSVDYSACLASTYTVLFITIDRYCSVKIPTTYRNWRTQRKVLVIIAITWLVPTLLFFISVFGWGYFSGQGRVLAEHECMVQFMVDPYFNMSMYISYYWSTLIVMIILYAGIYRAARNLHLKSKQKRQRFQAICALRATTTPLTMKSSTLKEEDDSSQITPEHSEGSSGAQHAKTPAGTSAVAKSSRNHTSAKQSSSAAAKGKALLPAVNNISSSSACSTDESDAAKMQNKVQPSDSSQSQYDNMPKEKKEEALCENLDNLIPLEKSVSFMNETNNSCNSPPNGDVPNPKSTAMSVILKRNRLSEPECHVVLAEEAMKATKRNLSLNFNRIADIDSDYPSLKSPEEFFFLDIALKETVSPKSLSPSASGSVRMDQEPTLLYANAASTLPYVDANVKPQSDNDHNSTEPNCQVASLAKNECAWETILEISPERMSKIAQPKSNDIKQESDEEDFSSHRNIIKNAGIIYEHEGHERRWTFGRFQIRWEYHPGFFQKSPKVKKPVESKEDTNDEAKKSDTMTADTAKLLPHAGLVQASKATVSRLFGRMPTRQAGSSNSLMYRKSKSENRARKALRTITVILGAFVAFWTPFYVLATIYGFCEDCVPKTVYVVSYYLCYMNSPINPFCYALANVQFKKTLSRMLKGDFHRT

## CC(C[N+](C)(C)C)OC(N)=O (stereo not shown) [Bethanechol, bethanechol chloride]
TsGAR-1 [1]
  EC50: > 10000 nM
TsGAR-1 [1]; [7]
  nH (Hill coefficient), agonist, TsGAR-1: 0.9289
TsGAR-1 [1]; co-expressed with Gα15(16)
  agonist activity on TsGAR-1 (in words): low potency
A. suum GAR-1
  agonist activity on A. suum GAR-1 (in words): agonistic effect was shown
TsGAR-2 [2]
  EC50: > 10000 nM
TsGAR-2 [2]; [7]
  nH (Hill coefficient), agonist, TsGAR-2: 0.8738
TsGAR-2 [2]; co-expressed with Gα15(16)
  agonist activity on TsGAR-2 (in words): low potency
TsGAR-3 [3]
  EC50: > 10000 nM
TsGAR-3 [3]; without Gα15(16)
  nH (Hill coefficient), agonist, TsGAR-3: 1.390
  agonist activity on TsGAR-3 (in words): low potency

## C[N+](C)(C)CCOC(N)=O [Carbachol, carbamoylcholine chloride]
TsGAR-1 [1]
  EC50: 2050 ± 235 nM
TsGAR-1 [1]; [7]
  nH (Hill coefficient), agonist, TsGAR-1: 0.8693
TsGAR-2 [2]
  EC50: 2670 ± 508 nM
TsGAR-2 [2]; [7]
  nH (Hill coefficient), agonist, TsGAR-2: 0.9531
TsGAR-3 [3]
  EC50: 1930 ± 256 nM
TsGAR-3 [3]; without Gα15(16)
  nH (Hill coefficient), agonist, TsGAR-3: 0.9117

## C[C@@H]1O[C@H](C[N+](C)(C)C)C[C@H]1O [Muscarine, (+)-muscarine chloride]
T. castaneum mAChR-B; [8]
  sensitivity of T. castaneum mAChR-B relative to mAChR-A: ~100 times
TsGAR-1 [1]; co-expressed with Gα15(16)
  agonist activity on TsGAR-1 (in words): no
TsGAR-2 [2]
  EC50: > 10000 nM
TsGAR-2 [2]; [7]
  nH (Hill coefficient), agonist, TsGAR-2: 0.8666
TsGAR-2 [2]; co-expressed with Gα15(16)
  agonist activity on TsGAR-2 (in words): low affinity
TsGAR-3 [3]
  EC50: 2500 ± 960 nM
TsGAR-3 [3]; without Gα15(16)
  nH (Hill coefficient), agonist, TsGAR-3: 0.7106
  agonist activity on TsGAR-3 (in words): potent agonist
D. melanogaster mAChR-B; [8]
  sensitivity of D. melanogaster mAChR-B relative to mAChR-A: about 1000 times

## CC(=O)OCC[N+](C)(C)C [Acetylcholine, acetylcholine chloride]
TsGAR-1 [1]; agonist, CHO cells, co-expressed with Gα15(16), SE of three biological replications, read-out: EC50 ± SE (nM), TsGAR-1
  EC50: 194 ± 18.1 nM
TsGAR-1 [1]; [7]
  nH (Hill coefficient), agonist, TsGAR-1: 0.8621
TsGAR-1 [1]; co-expressed with Gα15(16)
  agonist activity on TsGAR-1 (in words): potent activator
  ACh-mediated calcium mobilization via TsGAR-1 (in words): dose-dependent activity
TsGAR-1 [1]; [9]
  ACh-mediated calcium mobilization via TsGAR-1 (in words): effective responses
TsGAR-2 [2]; agonist, CHO cells, co-expressed with Gα15(16), SE of three biological replications, read-out: EC50 ± SE (nM), TsGAR-2
  EC50: 14.7 ± 10.8 nM
TsGAR-2 [2]; [7]
  nH (Hill coefficient), agonist, TsGAR-2: 0.5883
TsGAR-2 [2]; co-expressed with Gα15(16)
  agonist activity on TsGAR-2 (in words): potent activator
  ACh-mediated calcium mobilization via TsGAR-2 (in words): dose-dependent activity
TsGAR-2 [2]; [9]
  ACh-mediated calcium mobilization via TsGAR-2 (in words): effective responses
TsGAR-3 [3]
  EC50: 400 ± 73.1 nM
TsGAR-3 [3]; without Gα15(16)
  nH (Hill coefficient), agonist, TsGAR-3: 0.7319
  agonist activity on TsGAR-3 (in words): potent activator
TsGAR-3 [3]; co-expressed with Gα15(16)
  ACh-mediated calcium mobilization via TsGAR-3 (in words): dose-dependent activity
TsGAR-3 [3]; [9]
  ACh-mediated calcium mobilization via TsGAR-3 (in words): effective responses

## CN1[C@@H]2CC[C@H]1C[C@@H](OC(=O)C(CO)c1ccccc1)C2 (stereo partly shown) [Atropine, atropine]
TsGAR-3 [4]
  IC50: 222 ± 42.7 nM
  nH (Hill coefficient), antagonist, TsGAR-3: −0.8748
  antagonist effect on TsGAR-3 (in words): effectively inhibited
T. castaneum mAChR-B
  antagonist effect on T. castaneum mAChR-B (in words): remained unaffected
A. suum GAR-1
  antagonist effect on A. suum GAR-1 (in words): effective in inhibiting; also recorded: effectively blocked
TsGAR-2 [5]
  antagonist effect on TsGAR-2 (in words): not effective in blocking
D. melanogaster mAChR-B
  antagonist effect on D. melanogaster mAChR-B (in words): remained unaffected
TsGAR-1 [6]
  antagonist effect on TsGAR-1 (in words): not effective in blocking; also recorded: totally ineffective
C. elegans GAR-1
  antagonist effect on C. elegans GAR-1 (in words): effective in inhibiting; also recorded: effectively blocked

## COC(=O)C1=CCCN(C)C1 [Arecoline, arecoline hydrobromide]
TsGAR-1 [1]
  EC50: 4630 ± 841 nM
TsGAR-1 [1]; [7]
  nH (Hill coefficient), agonist, TsGAR-1: 1.054
TsGAR-1 [1]; co-expressed with Gα15(16)
  agonist activity on TsGAR-1 (in words): partial agonist
A. suum GAR-1
  agonist activity on A. suum GAR-1 (in words): effectively activate
TsGAR-2 [2]; co-expressed with Gα15(16)
  agonist activity on TsGAR-2 (in words): did not detect any arecoline-triggered activation
TsGAR-3 [3]
  EC50: 457 ± 156 nM
TsGAR-3 [3]; without Gα15(16)
  nH (Hill coefficient), agonist, TsGAR-3: 1.199
  agonist activity on TsGAR-3 (in words): partial agonist

## CN1[C@@H]2C[C@@H](OC(=O)[C@H](CO)c3ccccc3)C[C@H]1[C@@H]1O[C@@H]12 [Scopolamine, (−)-scopolamine hydrobromide trihydrate]
TsGAR-3 [4]
  IC50: 27.3 ± 6.3 nM
  nH (Hill coefficient), antagonist, TsGAR-3: −1.151
  antagonist effect on TsGAR-3 (in words): effectively inhibited
T. castaneum mAChR-B
  antagonist effect on T. castaneum mAChR-B (in words): remained unaffected
TsGAR-2 [5]
  antagonist effect on TsGAR-2 (in words): not effective in blocking
D. melanogaster mAChR-B
  antagonist effect on D. melanogaster mAChR-B (in words): remained unaffected
TsGAR-1 [6]
  antagonist effect on TsGAR-1 (in words): not effective in blocking
